Source: patent EP0819121B1, “TRICYCLIC COMPOUNDS USEFUL FOR INHIBITION OF G-PROTEIN FUNCTION AND FOR TREATMENT OF PROLIFERATIVE DISEASES” (SCHERING CORPORATION, priority 1995, dated 1996)
Read-outs that look alike come from different tables or passages of the source.

How the values were obtained:
[1] = biological target: farnesyl protein transferase (Homo sapiens, UniProt P49354+P49356); assay: FPT inhibition, in vitro enzyme assay (SPA, transfer of [3H]farnesyl to biotinylated Ras-peptide; or methods of WO 95/10516); type: biochemical; details: values given as ranges
Procedure: (§1) In some assays, FPT IC50 (inhibition of farnesyl protein transferase, in vitro enzyme assay) is determined by the methods described in WO 95/10516. COS Cell IC50 (Cell-Based Assay) and Cell Mat assay are determined by the methods described in WO 95/10516. GGPT IC50 (geranylgeranyl protein transferase, in vitro enzyme assay) and in vitro tumor activity can be determined by the methods disclosed in WO 95/10516.
In some assays, the inhibition of famesyi protein transferase was assayed by measuring the transfer of [^3H]farnesyl from [^3H]famesylpyrophosphate to biotinylated Ras-peptide (biotin-KKSKTKCVIM) using the conditions described below for each 96-well plate to be tested.
An assay buffer is prepared consisting of 40 mM Hepes, pH 7.5; 5 mM dithiothreitol; 20 mM magnesium chloride and 0.01 (v/v)% Igepal nonionic detergent.
A SPA (scintillation proximity assay) bead suspension is prepared consisting of 50 mg of Streptavidin SPA beads (Amersham Life-Science) suspended in 2.5 mL of PBS (phosphate buffered saline). Immediately prior to running the assay a stop solution is prepared consisting of 480 µL of the SPA bead suspension mixed with 6720 µL of a solution consisting of 250 mM EDTA (pH 8.0) and 0.5% Bovine Serium Albumin (Fraction V, 96-99% albumin).
(§2) In some assays, to determine FPT IC50, an assay mixture is prepared consisting of 480 µL of assay buffer and 3052.8 µL of water. This mixture is vortexed to homogeneity and 48 µL of the Ras peptide is added. The mixture is vortexed and 15.36 µL of FPP and 3.84 µL of [^3H]FPP are added and the mixture vortexed again. 37.5 µL of this assay mixture and 2.5µL of a DMSO solution (at test concentration) of the compound being tested are then added to each well of a Costar polypropylene U-bottom microtiter plate. The plate is sonicated for 15 minutes at 37°C and then shaken for 15 minutes on a plate shaker. 10 µL of the enzyme (recombinant Human farnesyl protein transferase) is added to each well using a Beckman Biomek 2000. The plate is incubated at room temperature for 20 minutes and then quenched with 75 µL of the stop solution. 100 µL of the quenched reaction mixture from each well is then transferred to a Wallac crosstalk-free microtiter plate using a Beckman Biomek 2000. Radioactivity is measured in a Wallac 1450 Microbeta plus liquid scintillation counter. Percent inhibition is calculated relative to an uninhibited control.
as §2, with “farnesyl transferase inhibition,” for “FPT IC50,”, “buffer,” for “buffer and”, “water and 240 µL of DMSO.” for “water.”, “40” for “37.5”, “is” for “and 2.5µL of a DMSO solution (at test concentration) of the compound being tested are”, “plate, each well of which contains a dry sample of the compound being tested.” for “plate.”

Tumor Cells = assay: Cell Mat assay, cell growth inhibition, tumor cells (methods of WO 95/10516); type: cell-based
Procedure: as §1

Normal Cells = assay: Cell Mat assay, cell growth inhibition, normal cells (methods of WO 95/10516); type: cell-based
Procedure: as §1

COS Cells = assay: COS cell assay, inhibition of RAS processing (cell-based, methods of WO 95/10516)
Procedure: as §1

[2] = read-out: Cell Growth Inhibition MAT Assay Tumor Cells IC50
[3] = read-out: Cell Growth Inhibition MAT Assay Normal Cells IC50
[4] = read-out: Activity in COS Cells Inhibition of RAS Processing IC50
[5] = read-out: Activity in COS Cells Inhibition of RAS Processing IC50 in µM

Compound	FPT Inhibition IC50 [1] [µM]	other results
CNC(=O)C1CN(C2c3ccc(Cl)cc3CCc3cc(Br)cnc32)CCN1C(=O)Cc1cccnc1 (centres unmarked) [EX 32-A]	0.01 to 10	
O=C(NC1CC1)C1CN(C2c3ccc(Cl)cc3CCc3cc(Br)cnc32)CCN1C(=O)Cc1ccncc1 (centres unmarked) [EX 47]	0.01 to 10	
N[C@@H](CS)CN1CCN(C2c3ccc(Cl)cc3CCc3cc(Br)cnc32)CC1 (some centres unmarked) [EX1]		IC50 [1]: > 100 µM
CC(C)NC(=O)CC1CN(C2c3ccc(Cl)cc3CCc3cc(Br)cnc32)CCN1C(=O)Cc1cccnc1 (centres unmarked) [EX 34]	0.01 to 10	
CCCCNC(=O)C1CN(C2c3ccc(Cl)cc3CCc3cc(Br)cnc32)CCN1C(=O)CC1CCN(C(N)=O)CC1 (centres unmarked) [EX 41]	0.01 to 10	
CCCCNC(=O)C1CN(C2c3ccc(Cl)cc3CCc3cc(Br)cnc32)CCN1C(=O)OC1CCN(C(C)=O)CC1 (centres unmarked) [EX 44]	0.01 to 10	
O=C(NCc1cccnc1)C1CN(C2c3ccc(Cl)cc3CCc3cc(Br)cnc32)CCN1C(=O)CCc1ccccc1 (centres unmarked) [EX 43]	0.01 to 10	
CNC(=O)C1CN(C2c3ccc(Cl)cc3CCc3cc(Br)cnc32)CCN1C(=O)Cc1ccncc1 (centres unmarked) [EX 55]	0.01 to 10	
COc1ccc(CSC[C@H](N)C(=O)N2CCC(=C3c4ccc(Cl)cc4CCc4cccnc43)CC2)cc1 [EX 31]	0.01 to 10	IC50 (Tumor Cells; [2]): 12.5 µM; IC50 (Normal Cells; [3]): 18 µM
N[C@@H](CSSC[C@H](N)C(=O)N1CCN(C2c3ccc(Cl)cc3CCc3cc(Br)cnc32)CC1)C(=O)N1CCN(C2c3ccc(Cl)cc3CCc3cc(Br)cnc32)CC1 (some centres unmarked) [EX 20, Step B]	0.01 to 10	
N[C@@H](CS)C(=O)N1CCN(C2c3ccc(Cl)cc3CCc3cc(Br)cnc32)CC1 (some centres unmarked) [EX 21, Step B]	0.01 to 10	
CNC(=O)CC1CN(C2c3ccc(Cl)cc3CCc3cc(Br)cnc32)CCN1C(=O)Cc1ccncc1 (centres unmarked) [EX 51]	0.01 to 10	
CN(Cc1ccccc1[N+](=O)[O-])C(=O)C1CN(C2c3ccc(Cl)cc3CCc3cc(Br)cnc32)CCN1C(=O)Cc1cccnc1 (centres unmarked) [EX 48]		IC50 [1]: 10 to 100 µM
O=C(Cc1ccncc1)N1CCN(C2c3ccc(Cl)cc3CCc3cc(Br)cnc32)CC1CO (centres unmarked) [EX 50]	0.01 to 10	
O=C(CC1CN(C2c3ccc(Cl)cc3CCc3cc(Br)cnc32)CCN1C(=O)Cc1ccncc1)NC1CC1 (centres unmarked) [EX 54]	0.01 to 10	
COCC[C@H]1CN(C2c3ccc(Cl)cc3CCc3cc(Br)cnc32)CCN1C(=O)CC1CCN(C(N)=O)CC1 (some centres unmarked) [EX 39, Step C]	0.01 to 10	IC50 (COS Cells; [4]): 0.01 to 10 µM; IC50 (Tumor Cells; [2]): < 1.6 µM; IC50 (Normal Cells; [3]): > 25 µM
CC(C)N(C)C(=O)C1CN(C2c3ccc(Cl)cc3CCc3cc(Br)cnc32)CCN1C(=O)Cc1ccncc1 (centres unmarked) [EX 56]	0.01 to 10	
CCCC[C@H]1CN(C2c3ccc(Cl)cc3CCc3cc(Br)cnc32)CCN1C(=O)Cc1cc[n+]([O-])cc1 (some centres unmarked) [EX 36]	0.01 to 10	IC50 (COS Cells; [5]): 0.01 to 10 µM; IC50 (Tumor Cells; read-out: Cell Growth Inhibition MAT Assay Tumor Cells IC50 in µM): 1.6 µM; IC50 (Normal Cells; read-out: Cell Growth Inhibition MAT Assay Normal Cells IC50 in µM): > 25 µM
CCOC(=O)C1CN(C2c3ccc(Cl)cc3CCc3cc(Br)cnc32)CCN1C(=O)Cc1cccnc1 (centres unmarked) [EX 33]	0.01 to 10	
COCC[C@H]1CN(C2c3ccc(Cl)cc3CCc3cc(Br)cnc32)CCN1C(=O)CC1CCNCC1 (some centres unmarked) [EX 39, Step B]	0.01 to 10	
CNC(=O)CC1CN(C2c3ccc(Cl)cc3CCc3cc(Br)cnc32)CCN1C(=O)Cc1cccnc1 (centres unmarked) [EX 46]	0.01 to 10	
COCC[C@H]1CN(C2c3ccc(Cl)cc3CCc3cc(Br)cnc32)CCN1C(=O)Cc1cc[n+]([O-])cc1 (some centres unmarked) [Ex 38]	0.01 to 10	IC50 (COS Cells; [5]): 0.01 to 10 µM
COc1ccc(CSC[C@H](NC(=O)OC(C)(C)C)C(=O)N2CCC(=C3c4ccc(Cl)cc4CCc4cccnc43)CC2)cc1 [EX 30]	0.01 to 10	IC50 (Tumor Cells; [2]): > 50 µM; IC50 (Normal Cells; [3]): > 50 µM
CCCC[C@H]1CN(C2c3ccc(Cl)cc3CCc3cc(Br)cnc32)CCN1C(=O)CC1CCN(C(N)=O)CC1 (some centres unmarked) [EX 37, Step C]	0.01 to 10	IC50 (COS Cells; [4]): 0.01 to 10 µM; IC50 (Tumor Cells; [2]): 3.1 µM; IC50 (Normal Cells; [3]): 18 µM
CC(C)NC(=O)C1CN(C2c3ccc(Cl)cc3CCc3cc(Br)cnc32)CCN1C(=O)Cc1cccnc1 (centres unmarked) [EX 32-B]	0.01 to 10	
N[C@@H](CS)CN1CCC(=C2c3ccc(Cl)cc3CCc3cc(Br)cnc32)CC1 [EX 56A]		IC50 [1]: > 100 µM
CC(C)NC(=O)C1CN(C2c3ccc(Cl)cc3CCc3cc(Br)cnc32)CCN1C(=O)Cc1ccncc1 (centres unmarked) [EX 32-C]	0.01 to 10	
